Laboratory results from patent US20250043290A1, “RNA SEQUENCES THAT INDUCE FLUORESCENCE OF SMALL MOLECULE FLUOROPHORES, MOLECULAR COMPLEXES, SENSORS, AND METHODS OF USE THEREOF” (CORNELL UNIVERSITY, priority 2021, published 2025).
Entries after “also recorded” stand apart in the source; their conditions may differ.

Key:
HEK293T cells [1] = experiment: Cytotoxicity of DFAME, MTT assay after illumination; assay type: cell-based; details: 10 μM, illuminated for 10 minutes
Procedure: FIG. 31A is a graph showing the results of an experiment evaluating fluorescence of DFAME when mixed with cells. An important criteria for a fluorogenic dye is that it must have very low fluorescence when mixed with cells. To test this, 10 μM DFAME was incubated with cultured HEK293T cells and the fluorescence intensity of the DFAME-incubated cells was measured. […] Although the background fluorescence in cells induced by DFAME (n=48 cells) was higher than DFHO (n=47 cells) or DFHBI-1T (n=44 cells), it was reasoned that DFAME could be used if enough fluorogenic aptamer is used in cells. Data were collected from three independent cell cultures. Values are means±s.d. FIG. 31B is a graph showing the cytotoxicity of DFAME. To apply a fluorogenic dye in cells, it is critical that this dye has minimal cytotoxicity. To test the cytotoxicity of DFAME, HEK293T cells were first incubated with 10 μM DFAME, then illuminated for 10 minutes using a Nikon Intensilight C-HGFIE 130 W mercury lamp with the TRITC filter set. Control cells were illuminated under identical conditions either with 0.2% DMSO (illuminated with the TRITC filter set) or 10 μM malachite green (illuminated with the Cy5 filter set). […] MTT absorbance readings were performed at 550 nm with 650 nm absorbance used for background subtraction. […]

[2] = Photophysical properties of DFAME, DFHO and RNA complexes (Beetroot study); assay type: physicochemical
Description: dsDNA encoding the top-performing RNA sequences from the brightest bacterial colonies was PCR amplified from the purified plasmids. PCR products were subjected to gel electrophoresis in 2% TBE gel, and the PCR product band corresponding to the correct size was excised from gel and further purified with PCR purification columns (Qiagen) and in vitro transcribed using an AmpliScribe T7-Flash Transcription Kit (Epicenter). The resulting RNA was then purified using Zymo RNA concentrator columns and quantified by absorbance using a Thermo Scientific NanoDrop 2000 spectrophotometer. For absorption, excitation and emission spectra measurements, “excess RNA” conditions and limiting amount of fluorophore was used to ensure that no free fluorophore contributes to the absorbance or fluorescence signal. The RNA concentration used for fluorescence and absorbance measurements was 20 μM and 50 μM, respectively, while the dye concentration was 2 μM and 5 μM, respectively. All in vitro RNA properties were measured in 40 mM HEPES pH 7.4, 100 mM KCl, 5 mM MgCl2 buffer, unless specified.
Extinction coefficient was calculated based on Beer's law. Briefly, absorbance spectrum of 5 μM DFAME, Beetroot-DFAME, or Corn-DFAME was measured using a Thermo Scientific NanoDrop 2000 spectrophotometer with cuvette capability. Extinction coefficient was calculated by dividing peak absorbance value by the concentration of fluorophore alone, or RNA-fluorophore complex.
Quantum yield was determined by comparing the integral of the emission spectra for DFAME or RNA-DFAME complex with the corresponding integral obtained from Rhodamine B solution. These integral values were plotted against the absorbance values corresponding to the excitation wavelength. The slopes from the above plots were calculated for determining quantum yield. Quantum yield was calculated by multiplying the quantum yield of Rhodamine B by the slope of DFAME or RNA-DFAME complex, then divided by the slope of Rhodamine B.

HEK293T cells [3] = experiment: SAM sensor imaging in HEK293T cells; assay type: cell-based; details: 30 mM cycloleucine, within 30 minutes
Procedure: FIG. 4A is a schematic showing the design of the Squash-SAM sensor transducer library. The SAM-III aptamer (top) was fused to Squash (bottom) through a transducer helix (middle). The sensor was selected from a library of randomized transducer sequences generated using the sprouts/clips method. FIG. 4B is a bar graph showing the results of an experiment in which, after three rounds of SELEX, two Squash-SAM sensors, 5-1 and 4-2, were tested for SAM-induced fluorescence. Squash-SAM sensor RNAs (1 μM) were incubated with 10 μM DFHO and 0 or 0.1 mM SAM for 1 hour at 37° C. and then fluorescence was measured (ex. 495 nm; em. 562 nm). Data represent mean values±s.d. for n=3 independent experiments. FIGS. 4C-4D are plots showing the kinetics of fluorescence activation (FIG. 4C) and deactivation (FIG. 4D) of Squash-SAM sensors. Sensor activation was induced by adding 0.1 mM SAM to 1 μM sensor RNAs and 10 μM DFHO at 37° C. Deactivation was measured after removal of SAM by gel filtration. […] SAM binding activates the orange fluorescence by promoting Squash folding and subsequent binding with DFHO. The constitutive green fluorescence of Broccoli-BI is used for normalization, thus eliminating the confounding effect of cell-to-cell variation in sensor expression level, and different fluorescence measurements in thick vs. thin parts of the cell. […] The ratio was measured at 10 minute time intervals. […]

mES cells = experiment: Ratiometric SAM imaging in mES cells; assay type: cell-based, Mouse; details: 30 mM cycloleucine, +2i and −2i media, sensor 4-2
HCT116 cells = experiment: Ratiometric SAM imaging in HCT116 cells; assay type: cell-based; details: 30 mM cycloleucine, sensor 5-1
Procedure: The control constitutively fluorescent Squash was not affected by withdrawal of threonine and methionine. Scale bar, 20 μm. […] Overall, low cell-to-cell variation was seen (n=8 cells from three separate experiments). […] The rate of SAM drop was slower than the rate in cells cultured in +2i (n=8 cells from three separate experiments). […] SAM levels were measured at 20 minute time intervals after methionine withdrawal and after methionine (100 μM) addition. Cells indicated with a white arrow start with a very high level of SAM and show a slow drop in SAM levels over time, indicating low SAM utilization. Scale bar, 20 μm. […]
5-1 was used because it has higher dynamic range. […] To test if this also holds in HCT116 cells, Squash-SAM sensor 5-1 was expressed in HCT116 cells and SAM level was monitored after threonine depletion. […] To test this, Squash-SAM sensor 5-1 was expressed in HCT116 cells and SAM levels were monitored for 240 minutes after depleting both threonine and methionine. […] The average cellular ratio of O/G fluorescence was quantified for these cells at 15 minute intervals after cycloleucine (30 mM final) treatment. […]
After placing the plates on a Tokai Hit stage top incubator (37° C. and 5% CO2), live fluorescence images were taken with a Nikon Eclipse Ti-E microscope fitted with a CoolSnap HQ2 CCD camera (Photometrics) through a 40× air objective (NA 0.75). […]

Row | SMILES | Cytotoxicity (HEK293T cells [1]) | Emission maximum [2] [nm] | Excitation maximum [2] [nm] | Fluorescence in solution ([2]; 10 μM) | Extinction coefficient ([2]; DFAME alone, at 514 nm, pH 7.4 buffer) | Brightness (extinction coefficient × quantum yield) ([2]; relative to Corn-DFHO) | Fluorescence quantum yield ([2]; versus Rhodamine B) | Sensor signal (SAM level) after cycloleucine (HEK293T cells [3]) | SAM levels after cycloleucine (mES cells) | SAM levels after cycloleucine (HCT116 cells)
1 | COC(=O)/C=C/C1=NC(=C\c2cc(F)c(O)c(F)c2)/C(=O)N1C [DFAME, methyl 3-((Z)-4-(3,5-difluoro-4-hydroxybenzylidene)-1-methyl-5-oxo-4,5-dihydro-1H-imidazol-2-yl)acrylate] | low cytotoxicity | 641 | 508 | very low red fluorescence | 32,500 M^−1cm^−1 | 1.3 | 0.0029 |  |  | 
2 | NC1(C(=O)O)CCCC1 [cycloleucine] |  |  |  |  |  |  |  | rapid decrease in fluorescence; also recorded: markedly reduced | rapid drop of cellular SAM levels; also recorded: markedly depleted | marked drop in SAM
